Measured values: PubChem BioAssay AID330 (DTP/NCI, 2004)
Values joined by “and” are separate entries in the source; they are usually repeats but may differ in a detail not shown here. Identical values can stand only once. Inconclusive results and toxic doses are left out. The calls were made as follows: active = survival T/C of 150% or more; inactive = T/C below 125% in these data.

System: P388 leukemia ip, CD2F1 mice, survival T/C
Assay: NCI In Vivo Anticancer Drug Screen. Data for tumor model P388 Leukemia (intraperitoneal) in CD2F1 (CDF1) mice
Settings: endpoint: median survival time, higher = longer survival
Procedure, shortened: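 Mice carrying the transplanted tumor received test compound or vehicle. Survival was recorded in each group, and the value is the treated-group measurement divided by that of the vehicle-treated control group.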

[1] = dose: 50.0 mg/kg/injection, schedule: Q01DX009 (ip), vehicle: saline
[2] = dose: 200.0 mg/kg/injection, schedule: Q01DX009 (ip), vehicle: saline
[3] = dose: 100.0 mg/kg/injection, schedule: Q04DX003 (ip), vehicle: saline with Tween-80
[4] = dose: 200.0 mg/kg/injection, schedule: Q04DX003 (ip), vehicle: saline with Tween-80
[5] = dose: 400.0 mg/kg/injection, schedule: Q04DX003 (ip), vehicle: saline with Tween-80
[6] = dose: 12.5 mg/kg/injection, schedule: Q01DX009 (ip), vehicle: saline with Tween-80
[7] = dose: 25.0 mg/kg/injection, schedule: Q01DX009 (ip), vehicle: saline with Tween-80
[8] = dose: 50.0 mg/kg/injection, schedule: Q01DX009 (ip), vehicle: saline with Tween-80
[9] = dose: 100.0 mg/kg/injection, schedule: Q01DX009 (ip), vehicle: saline with Tween-80
[10] = dose: 25.0 mg/kg/injection, schedule: Q04DX003 (ip), vehicle: saline with Tween-80
[11] = dose: 50.0 mg/kg/injection, schedule: Q04DX003 (ip), vehicle: saline with Tween-80
[12] = dose: 12.5 mg/kg/injection, schedule: Q01DX009 (ip), vehicle: saline
[13] = dose: 25.0 mg/kg/injection, schedule: Q01DX009 (ip), vehicle: saline
[14] = dose: 100.0 mg/kg/injection, schedule: Q01DX009 (ip), vehicle: saline
[15] = dose: 60.0 mg/kg/injection, schedule: Q01DX005 (ip), vehicle: saline with Tween-80
[16] = dose: 120.0 mg/kg/injection, schedule: Q01DX005 (ip), vehicle: saline with Tween-80
[17] = dose: 240.0 mg/kg/injection, schedule: Q01DX005 (ip), vehicle: saline with Tween-80

Measured: T/C

CC1CCC(C)(C(O)c2ccc(C(O)C3(C)CCC(C)C3(C)C)cc2)C1(C)C (stereo not given)
inactive: [1] 86 % of control | dose: 50.0 mg/kg/injection, schedule: Q01DX009 (ip), vehicle: suspension in saline 92 % of control | dose: 100.0 mg/kg/injection, schedule: Q01DX009 (ip), vehicle: suspension in saline 91 % of control | [2] 89 % of control

COCC1(C)CCCC2(C)C3=CC(=O)CCC3CCC12 (stereo not given)
inactive: [3] 100 % of control | [4] 108 % of control | [5] 95 % of control

O=[N+]([O-])c1ccc(Sc2ccncn2)c([N+](=O)[O-])c1
inactive: [6] 91 % of control | [7] 116 % of control | [8] 123 % of control | [9] 116 % of control

CC(C)=CCCC(C)C1CCC2(CO2)C2CC=C(C)C2C1O (stereo not given)
inactive: dose: 20.0 mg/kg/injection, schedule: Q01DX009 (ip), vehicle: Klucel (hydroxypropylcellulose) (HPC) 102 % of control | dose: 40.0 mg/kg/injection, schedule: Q01DX009 (ip), vehicle: Klucel (hydroxypropylcellulose) (HPC) 96 % of control | dose: 80.0 mg/kg/injection, schedule: Q01DX009 (ip), vehicle: Klucel (hydroxypropylcellulose) (HPC) 102 % of control | dose: 160.0 mg/kg/injection, schedule: Q01DX009 (ip), vehicle: Klucel (hydroxypropylcellulose) (HPC) 99 % of control

CCCCCCCCCCCC[N+]1(CC)CCCCC1
inactive: dose: 0.39 mg/kg/injection, schedule: Q01DX009 (ip), vehicle: saline 108 % of control | dose: 0.78 mg/kg/injection, schedule: Q01DX009 (ip), vehicle: saline 109 % of control | dose: 1.56 mg/kg/injection, schedule: Q01DX009 (ip), vehicle: saline 118 % of control

COc1cc2c(cc1OC)C13CCN4CC5=CCOC6CC(=O)N2C1C6C5CC43 (stereo not given) (tested in a mixture with another compound)
inactive: [10] 100 % of control | [8] 104 % of control | [11] 104 % of control | [9] 106 % of control | [3] 104 % of control

O=C(Cn1cnc2c(=S)nc[nH]c21)Oc1ccc([N+](=O)[O-])cc1
inactive: [6] 109 % of control | [7] 100 % of control | [10] 91 % of control | [8] 100 % of control | [11] 91 % of control

CCC1CN2CCc3cc(OC)c(OC)cc3C2CC1=O (stereo not given)
inactive: [12] 104 % of control | [13] 99 % of control | dose: 37.5 mg/kg/injection, schedule: Q04DX003 (ip), vehicle: saline with Tween-80 101 % of control | [8] 107 % of control | [1] 99 % of control and 103 % of control | dose: 75.0 mg/kg/injection, schedule: Q04DX003 (ip), vehicle: saline with Tween-80 121 % of control | [9] 112 % of control | [14] 96 % of control and 97 % of control | dose: 200.0 mg/kg/injection, schedule: Q01DX009 (ip), vehicle: saline with Tween-80 107 % of control | [2] 106 % of control

CC1=C(C(=O)CC(=O)Nc2ccc(Cl)c(Cl)c2)Sc2ccccc2N1
inactive: [15] 96 % of control | [16] 92 % of control | [17] 99 % of control

CC1CCCCC1NC(=O)NCCOC(=O)OCCNC(=O)NC1CCCCC1C (stereo not given)
inactive: [3] 90 % of control | [4] 86 % of control | [5] 86 % of control

ClC1=C(Cl)C2(Cl)C3C4CC(C5OC45)C3N1C2(Cl)Cl (stereo not given)
inactive: dose: 100.0 mg/kg/injection, schedule: Q01DX001 (ip), vehicle: saline with Tween-80 109 % of control | dose: 200.0 mg/kg/injection, schedule: Q01DX001 (ip), vehicle: saline with Tween-80 103 % of control

C=C(C)CCP(=S)(OCC)OCC
inactive: [15] 102 % of control | [16] 101 % of control | [17] 100 % of control

O=C1Nc2ccccc2/C1=c1/sc2nc3ccccc3n2c1=O
inactive: dose: 200.0 mg/kg/injection, schedule: Q01DX001 (ip), vehicle: Klucel (hydroxypropylcellulose) (HPC) 89 % of control | dose: 400.0 mg/kg/injection, schedule: Q01DX001 (ip), vehicle: Klucel (hydroxypropylcellulose) (HPC) 89 % of control

CN(C)CCOC(=O)C(C)(C)Sc1ccc(Cl)cc1
inactive: [15] 107 % of control | [16] 92 % of control | [17] 98 % of control

O=[N+]([O-])c1ncccc1NCCN1CCCC1
inactive: [12] 104 % of control | [13] 100 % of control | [1] 106 % of control and 108 % of control

CC(=O)/C(Cl)=N\O
inactive: dose: 3.12 mg/kg/injection, schedule: Q01DX005 (ip), vehicle: saline 100 % of control | dose: 6.25 mg/kg/injection, schedule: Q01DX005 (ip), vehicle: saline 107 % of control | dose: 12.5 mg/kg/injection, schedule: Q01DX005 (ip), vehicle: saline 109 % of control

[Se]=P(c1ccccc1)(N1CCCCC1)N1CCCCC1
inactive: dose: 12.5 mg/kg/injection, schedule: Q01DX001 (ip), vehicle: Klucel (hydroxypropylcellulose) (HPC) 106 % of control | dose: 25.0 mg/kg/injection, schedule: Q01DX001 (ip), vehicle: Klucel (hydroxypropylcellulose) (HPC) 101 % of control | dose: 50.0 mg/kg/injection, schedule: Q01DX001 (ip), vehicle: Klucel (hydroxypropylcellulose) (HPC) 93 % of control

CN(C)c1ccc(/C=C/c2cc[n+](C)cc2)cc1
inactive: dose: 2.0 mg/kg/injection, schedule: Q01DX009 (ip), vehicle: saline with Tween-80 110 % of control | dose: 2.0 mg/kg/injection, schedule: Q04DX003 (ip), vehicle: saline with Tween-80 91 % of control | dose: 4.0 mg/kg/injection, schedule: Q01DX009 (ip), vehicle: saline with Tween-80 100 % of control | dose: 4.0 mg/kg/injection, schedule: Q04DX003 (ip), vehicle: saline with Tween-80 100 % of control | dose: 8.0 mg/kg/injection, schedule: Q01DX009 (ip), vehicle: saline with Tween-80 100 % of control | dose: 8.0 mg/kg/injection, schedule: Q04DX003 (ip), vehicle: saline with Tween-80 108 % of control

CCN(CC)CCN1c2ccccc2Sc2c1ccc1ccccc21
inactive: dose: 50.0 mg/kg/injection, schedule: Q01DX005 (ip), vehicle: saline + Tween-80 + alcohol 112 % of control | dose: 100.0 mg/kg/injection, schedule: Q01DX005 (ip), vehicle: saline + Tween-80 + alcohol 107 % of control | dose: 200.0 mg/kg/injection, schedule: Q01DX005 (ip), vehicle: saline + Tween-80 + alcohol 107 % of control

c1csc(SSc2nccs2)n1
inactive: dose: 25.0 mg/kg/injection, schedule: Q04DX002 (ip), vehicle: saline with Tween-80 104 % of control | dose: 50.0 mg/kg/injection, schedule: Q04DX002 (ip), vehicle: saline with Tween-80 103 % of control | dose: 100.0 mg/kg/injection, schedule: Q04DX002 (ip), vehicle: saline with Tween-80 103 % of control and 105 % of control

O=C1CCCc2c1cc(C1CCCC1)c1ccccc21
inactive: dose: 60.0 mg/kg/injection, schedule: Q01DX005 (ip), vehicle: Klucel (hydroxypropylcellulose) (HPC) 104 % of control | dose: 120.0 mg/kg/injection, schedule: Q01DX005 (ip), vehicle: Klucel (hydroxypropylcellulose) (HPC) 94 % of control | dose: 240.0 mg/kg/injection, schedule: Q01DX005 (ip), vehicle: Klucel (hydroxypropylcellulose) (HPC) 101 % of control

Cc1ccc2c(c1)N(CCSc1ncn[nH]1)C(C)(C)CC2C (stereo not given)
inactive: dose: 100.0 mg/kg/injection, schedule: Q04DX002 (ip), vehicle: Klucel (hydroxypropylcellulose) (HPC) 97 % of control | dose: 200.0 mg/kg/injection, schedule: Q04DX002 (ip), vehicle: Klucel (hydroxypropylcellulose) (HPC) 92 % of control | dose: 400.0 mg/kg/injection, schedule: Q04DX002 (ip), vehicle: Klucel (hydroxypropylcellulose) (HPC) 97 % of control

O=c1ccc(=O)[nH][nH]1
inactive: [13] 102 % of control | [1] 105 % of control and 88 % of control | [14] 99 % of control and 102 % of control | [2] 99 % of control and 100 % of control | dose: 400.0 mg/kg/injection, schedule: Q01DX009 (ip), vehicle: saline 99 % of control and 110 % of control

CC(C)(C)c1cc(C#CC#Cc2cc(C(C)(C)C)cc(C(C)(C)C)c2)cc(C(C)(C)C)c1
inactive: dose: 25.0 mg/kg/injection, schedule: Q01DX005 (ip), vehicle: Klucel (hydroxypropylcellulose) (HPC) 86 % of control | dose: 50.0 mg/kg/injection, schedule: Q01DX005 (ip), vehicle: Klucel (hydroxypropylcellulose) (HPC) 86 % of control

CC(N)(CCS(=O)CP(=O)(O)O)C(=O)O (stereo not given)
inactive: dose: 60.0 mg/kg/injection, schedule: Q01DX005 (ip), vehicle: saline 100 % of control | dose: 120.0 mg/kg/injection, schedule: Q01DX005 (ip), vehicle: saline 94 % of control
